Each molecule was assayed against LasB (Pseudomonas aeruginosa (strain ATCC 15692 / DSM 22644 / CIP 104116 / JCM 14847 / LMG 12228 / 1C / PRS 101 / PAO1), UniProt P14756) (assay: In vitro LasB activity assay (fluorogenic substrate)). Conditions: LasB 0.3 nM, substrate 150 μM, mean ± SD.
Format: biochemical
Experimental: The LasB activity assay was performed as described previously (Nishino N, Powers J C. Pseudomonas aeruginosa elastase. Development of a new substrate, inhibitors, and an affinity ligand. J Biol Chem. 1980 Apr. 25; 255(8):3482-6) using the fluorogenic substrate 2-Aminobenzoyl-L-Alanyl-Glycyl-L-Leucyl-L-Alanyl-para-Nitro-Benzyl-Amide, purchased from Peptides International (Louisville, KY, USA) and vivitide, LLC (Gardner, MA, USA).
Fluorescence intensity was measured for 60 min at 37° C. in black 384-well microtiter plates (Greiner BioOne, Kremsmünster, Austria) using a CLARIOstar microplate reader (BMG Labtech, Ortenberg, Germany) with an excitation wavelength of […] and an emission wavelength of 415±20 nm. The assay was performed in a final volume of 50 μL of assay buffer (50 mM Tris, pH 7.2, 2.5 mM CaCl2), 0.075% Pluronic F-127, 5% DMSO) containing LasB at a final concentration of […] 0.3 nM and the substrate at 150 μM. Before substrate addition, compounds were preincubated with the enzyme at 37° C. for 15 min. Experiments were performed in duplicates and repeated for at least two times. Blank controls without enzyme were performed. After blank subtraction, the slope of samples containing inhibitors (v) was divided by the slope of a simultaneously started uninhibited enzymatic reaction (v0). IC50 values were determined with nonlinear regression using GraphPad Prism 5 (Graph Pad Software, San Diego, CA, USA) and are given as mean values ±standard deviation (SD). The slope factor was constrained to 1.

LasB, sequence (P14756 198-498): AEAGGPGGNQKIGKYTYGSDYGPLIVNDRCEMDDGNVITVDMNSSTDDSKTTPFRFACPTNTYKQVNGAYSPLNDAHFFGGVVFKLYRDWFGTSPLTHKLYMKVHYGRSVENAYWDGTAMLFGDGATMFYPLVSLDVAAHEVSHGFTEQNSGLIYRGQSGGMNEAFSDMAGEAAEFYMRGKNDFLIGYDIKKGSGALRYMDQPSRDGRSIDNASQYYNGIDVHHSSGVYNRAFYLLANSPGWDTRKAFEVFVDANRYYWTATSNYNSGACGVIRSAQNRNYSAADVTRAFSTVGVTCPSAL

| Compound | IC50 |
| --- | --- |
| CC(C(=O)NO)C(=O)Nc1ccc(Cn2cc(CNS(=O)(=O)c3ccc(I)cc3)nn2)cc1 (stereo not shown) [Compound 217, 3-(hydroxyamino)-N-[4-[[4-[[(4-iodophenyl)sulfonylamino]methyl]triazol-1-yl]methyl]phenyl]-2-methyl-3-oxo-propanamide] | 278 ± 9.7 nM |
| CC(=O)Nc1ccccc1OCc1cn(Cc2ccc(NC(=O)C(CC(C)C)C(=O)NO)cc2)nn1 (stereo not shown) [Hit L5, N-[4-[[4-[(2-Acetamidophenoxy)methyl]triazol-1-yl]methyl]phenyl]-2-(hydroxycarbamoyl)-4-methyl-pentanamide] | 13.8 ± 0.3 nM |
| CC(C)CC(C(=O)NO)C(=O)Nc1ccc(Cn2cc(-c3ccc(I)cc3)nn2)cc1 (stereo not shown) [Compound 138, 2-(Hydroxycarbamoyl)-N-[4-[[4-(4-iodophenyl)triazol-1-yl]methyl]phenyl]-4-methyl-pentanamide] | 37.8 ± 2.9 nM |
| CC(C)CC(C(=O)NO)C(=O)Nc1ccc(Cn2cc(CNS(=O)(=O)C3CCCCC3)nn2)cc1 (stereo not shown) [Compound 168, N-[4-[[4-[(Cyclohexylsulfonylamino)methyl]triazol-1-yl]methyl]phenyl]-2-(hydroxycarbamoyl)-4-methyl-pentanamide] | 2.7 ± 0.2 nM |
| O=C(NO)C(Cc1ccccc1)C(=O)Nc1ccc(Cn2cc(CNS(=O)(=O)c3ccc(I)cc3)nn2)cc1 (stereo not shown) [Compound 179, 2-Benzyl-3-(hydroxyamino)-N-[4-[[4-[[(4-iodophenyl)sulfonylamino]methyl]triazol-1-yl]methyl]phenyl]-3-oxo-propanamide] | 1 ± 0.6 nM |
| CC(C)CC(C(=O)NO)C(=O)Nc1ccc(Cn2cc(CN3C(=O)c4ccccc4S3(=O)=O)nn2)cc1 (stereo not shown) [Compound 139, 2-(Hydroxycarbamoyl)-4-methyl-N-[4-[[4-[(1,1,3-trioxo-1,2-benzothiazol-2-yl)methyl]triazol-1-yl]methyl]phenyl]pentanamide] | 19.3 ± 0.6 nM |
| CC(C)CC(C(=O)NO)C(=O)Nc1ccc(Cn2nncc2CNC(=O)OC(C)(C)C)cc1 (stereo not shown) [Compound 185, tert-butyl N-[[3-[[4-[[2-(hydroxycarbamoyl)-4-methyl-pentanoyl]amino]phenyl]methyl]triazol-4-yl]methyl]carbamate] | 6.5 ± 0.2 nM |
| CC(=O)c1ccc(S(=O)(=O)NCc2cn(Cc3ccc(NC(=O)C(CC(C)C)C(=O)NO)cc3)nn2)cc1 (stereo not shown) [Compound 203, N-[4-[[4-[[(4-acetylphenyl)sulfonylamino]methyl]triazol-1-yl]methyl]phenyl]-2-(hydroxycarbamoyl)-4-methyl-pentanamide] | 7.9 ± 0.2 nM |
| CC(C)CC(C(=O)NO)C(=O)Nc1ccc(Cn2nncc2CNS(=O)(=O)CC(C)C)cc1 (stereo not shown) [Compound 192, 2-(Hydroxycarbamoyl)-N-[4-[[5-[(isobutylsulfonylamino)methyl]triazol-1-yl]methyl]phenyl]-4-methyl-pentanamide] | 6.8 ± 0.1 nM |
| CC(C)CC(C(=O)NO)C(=O)Nc1ccc(Cn2cc(CNS(=O)(=O)c3ccc(C(C)C)cc3)nn2)cc1 (stereo not shown) [Compound 207, 2-(hydroxycarbamoyl)-N-[4-[[4-[[(4-isopropylphenyl)sulfonylamino]methyl]triazol-1-yl]methyl]phenyl]-4-methyl-pentanamide] | 3.1 ± 0.1 nM |
| CC(C)CC(C(=O)NO)C(=O)Nc1ccc(Cn2cc(CNc3ccc(I)cc3)nn2)cc1 (stereo not shown) [Compound 134, 2-(Hydroxycarbamoyl)-N-[4-[[4-[(4-iodoanilino)methyl]triazol-1-yl]methyl]phenyl]-4-methyl-pentanamide] | 8.4 ± 0.5 nM |
| CC(C)CC(C(=O)NO)C(=O)Nc1ccc(Cn2nncc2CNS(=O)(=O)c2ccc(I)cc2)cc1 (stereo not shown) [Compound 190, 2-(Hydroxycarbamoyl)-N-[4-[[5-[[(4-iodophenyl)sulfonylamino]methyl]triazol-1-yl]methyl]phenyl]-4-methyl-pentanamide] | 7.8 ± 0.1 nM |
| CC(C)CCC(C(=O)NO)C(=O)Nc1ccc(Cn2cc(CNS(=O)(=O)c3ccc(I)cc3)nn2)cc1 (stereo not shown) [Compound 215, 2-(hydroxycarbamoyl)-N-[4-[[4-[[(4-iodophenyl)sulfonylamino]methyl]triazol-1-yl]methyl]phenyl]-5-methyl-hexanamide] | 48.5 ± 1.4 nM |

— patent US20250170104A1, “INHIBITORS OF PSEUDOMONAS AERUGINOSA VIRULENCE FACTOR Lasß” (priority 2022, published 2025)
